# Experimental data published in US20100087474A1, “MATERIALS AND METHODS FOR ENHANCED DEGRADATION OF MUTANT PROTEINS ASSOCIATED WITH HUMAN DISEASE” (UNIVERSITY OF FLORIDA, priority 2005, published 2010).
# Several values for one entry are separate records, joined by “and”; a condition that tells them apart may be missing. Equal values may be shown once. Entries after “also recorded” stand apart in the source; their conditions may differ. Residues, ends and D or L forms follow the SMILES beside them. *: point of attachment. Cbz = O=C(OCc1ccccc1)*
# Experiments:
# [1] = tested on: P23H opsin; test: P23H opsin degradation in HEK293 stable cells (immunoblot); assay type: cell-based, human; conditions: for effect of inhibitor on FTI-277 induced P23H opsin degradation: in the presence of FTI-277, 3MA 10 mM, MG132 25 μM; for effect of inhibitor on P23H opsin degradation: inhibitor added at autophagy induction, amino acid depleted cells; for loss of P23H opsin: after 12 hours, FTI-277 50 μM, rapamycin 50 nM
# Experimental: Wild-type and P23H opsin were expressed in HEK293 tetracycline-inducible stable cell lines. The cells were grown in Dulbecco's modified Eagle's medium containing high glucose (Invitrogen, San Diego, Calif.) supplemented with 10% heat inactivated fetal bovine serum (Sigma) with antibiotic-antimycotic solution (Invitrogen, San Diego, Calif.), blasticidin (Cayla, Toulouse, France), zeocin (Invitrogen, San Diego, Calif.) at 37 C in the presence of 5.0% CO2. Opsin synthesis in cells was induced by addition of tetracycline (1 μg/ml). Baby hamster kidney (BHK) cell lines stably expressing the wild type and ΔF508 CFTR variant with a C-terminal HA epitope (CFTR-HA) (See Sharma et al., J. Cell Biol. 2004 164(6):923-33). The cells were grown in DMEM/F12 (Invitrogen, San Diego, Calif.) 1:1 ratio with 10% FBS at 37° C. in the presence of 5.0% CO2.
# Autophagy was induced in cells by incubating them in amino-acid depleted medium or treating them with rapamycin ([…]), or both. Cells were incubated under autophagy inducing conditions for two, six, or twelve hours. At the indicated time point the cells were lysed in 1% n-dodecyl-β-maltoside (DM) (Anatrace, Maumee, Ohio) in the presence of protease inhibitors (complete protease inhibitor mixture tablets (Roche Molecular Biochemicals, Mannheim, Germany) for 1 hour at 4° C. The cells were centrifuged at 36,000 rpm in a Beckman ultracentrifuge for 30 minutes at 4 C. The lysate was collected and immunoblotting was performed.
# (§1) Cell lysates were electrophoresed on 10% SDS polyacrylamide gels and transferred onto Immobilon-NC (Millipore, Billerica, Mass.) nitrocellulose membranes. The membranes were incubated at room temperature for 1 hour with a commercially available blocking buffer (Li-Cor, Lincoln, Nebr.) diluted 1:1 in PBST (PBS with 0.1% triton X-100, pH 7.4), followed by a 1 hour incubation with the indicated primary antibody. The blots were washed three times for 5 minutes each in PBST, and incubated for 1 hour with a true near infrared dye, IRDye800-conjugated secondary antibody (Rockland Immunochemicals Inc., Gilbertsville, Pa.). Finally the membranes were again washed three times with PBST and scanned in an Odyssey infrared scanner (Li-Cor, Lincoln, Nebr.). Quantitations on immunoblots were performed using Licor software. Primary antibodies included antibodies to opsin, HA-tag (Covance Princeton, N.J.), mTOR, phosphorylated mTOR (Upstate Charlottesville, Va.), calnexin, hsp70 (Stressgen, Victoria, BC, CA), Bip (BD PharMingen, San Diego, Calif.) to tubulin (Sigma Chemical, St. Louis, Mo.), 1D4 (University of British Columbia), Akt, phospho-Akt, S6K, phospho-S6K, MAPK and phosphor-MAPK (Cell Signaling Technology, Beverly, Mass.).
# Following tetracycline wash off, cells were treated for 0, 2, 6 and 12 hours then lysed in phosphate buffer containing 1% n-dodecyl-β-maltoside (DM) (Anatrace) in the presence of protease inhibitors (complete protease inhibitor mixture tablets; Roche Molecular Biochemicals) for 1 hour at 4° C. As a positive control for autophagy, cells were treated with rapamycin (50 nM), following tetracycline wash off. The lysates were centrifuged at 36,000 rpm in a Beckman ultracentrifuge for 10 min at 4C. The supernatant was collected and immunoblotting was performed. 3-methyladenine (3MA), which blocks autophagy (10 mM) (Sigma Chemical (St. Louis, Mo.)) and MG132 (25 μM) (Sigma Chemical (St. Louis, Mo.)) were also used.
# [2] = tested on: MAPK; test: MAPK phosphorylation in HEK293 cells (immunoblot); assay type: cell-based, human; conditions: FTI-277 treatment
# Experimental: as §1
# (§2) FTI-277 (Calbiochem) was used at 50 μM. […]
# [3] = tested on: Akt; test: Akt phosphorylation in HEK293 cells (immunoblot); assay type: cell-based, human; conditions: FTI-277 treatment
# Experimental: as §1, §2
# [4] = tested on: HEK293 cells expressing P23H opsin; test: lysotracker staining of lysosomal vacuoles; assay type: cell-based, human
# Experimental: (§3) Staining with lysotracker (Molecular Probes) was also performed on live cells at 37° C. Confocal imaging was performed using the Leica TCS SP2 AOBS Spectral Confocal Microscope at 63× magnification.
# [5] = tested on: S6 kinase; test: S6 kinase phosphorylation in HEK293 cells (immunoblot); assay type: cell-based, human; conditions: within two hours of treatment
# Experimental: as §1, §2
# [6] = tested on: HEK293 cells expressing P23H opsin; test: immunocolocalization of autophagosome markers Atg7 and Atg8 with P23H opsin; assay type: cell-based, human; conditions: FTI-277 treatment versus untreated cells in complete medium
# Experimental: Cells were grown on glass coverslips and fixed in 4% paraformaldehyde. Following quenching with 50 mM NH4Cl, cells were washed with PBS and incubated for 1 hour with the indicated primary antibody at room temperature. Cells were washed five times in PBS and incubated with a secondary antibody (TRITC- and FITC-conjugate) for 1 hour. The cells were washed again and mounted with Vectashield containing DAPI. Primary antibodies included antibodies to LC3, LAMP-1, Atg7 (Dr Dunn), opsin, Atg7^20, Atg8 and HA-tag. The cells were then observed using a Zeiss Axiophot microscope.
# as §3
# [7] = tested on: mTOR; test: mTOR phosphorylation in opsin-expressing HEK293 cells (immunoblot); assay type: cell-based, human
# Experimental: Cell lysates were electrophoresed on 10% SDS polyacrylamide gels and transferred onto Immobilon-NC (Millipore, Billerica, Mass.) nitrocellulose membranes. The membranes were incubated at room temperature for 1 hour with a commercially available blocking buffer (Li-Cor, Lincoln, Nebr.) diluted 1:1 in PBST (PBS with 0.1% triton X-100, pH 7.4), followed by a 1 hour incubation with the indicated primary antibody. The blots were washed three times for 5 minutes each in PBST, and incubated for 1 hour with a true near infrared dye, IRDye800-conjugated secondary antibody (Rockland Immunochemicals Inc., Gilbertsville, Pa.). Finally the membranes were again washed three times with PBST and scanned in an Odyssey infrared scanner (Li-Cor, Lincoln, Nebr.). Quantitations on immunoblots were performed using Licor software. […]
# [8] = tested on: HEK293 cells expressing P23H opsin; test: electron microscopy morphometric quantification of autophagic vacuoles (AVs); assay type: cell-based, human; conditions: FTI-277 for two hours and six hours
# Experimental: P23H opsin-expressing cells were grown on ACLAR sheets in a 24-well plate. […] Following a wash with PBS, cells were fixed with 2% paraformaldehyde, 2% glutaraldehyde in 0.1M sodium cacodylate buffer, pH 7.4 for 30 minutes at 4° C. and processed for CMPase cytochemistry as previously described (31). Morphometric quantification of AVs was done on 20 electron micrographs per condition using Image J software T-test analysis was performed and P value (two-tailed significance) under or equal to 0.05 was considered significant (marked with asterisk).
# [9] = tested on: Rheb; conditions: Basso et al., 2005; cited from earlier work
# [10] = tested on: Bip, calnexin, calreticulin, Hsp70, Hsp90; test: UPR/HSR chaperone levels in opsin-expressing HEK293 cells (immunoblot); assay type: cell-based, human; conditions: FTI-277 treatment, time-dependent
# Experimental: as §1, §2
# [11] = tested on: HuH7 hepatoma cells stably expressing GFP-LC3; test: GFP-LC3 localization in HuH7 hepatoma cells (confocal); assay type: cell-based; conditions: FTI-277 treated versus fed cells
# Experimental: HuH7 hepatoma cells were stably transfected with pGFP-LC3 (Ogawa et al., Science 307(5710): 727-731, 2005) using a lipid optimization kit, the PerFect lipid (pFx-3), purchased from Invitrogen (San Diego, Calif.). PFX-3 (Invitrogen) according to manufacturer's protocols. Those colonies that grew in the presence of 0.5 mg/ml G418 were then isolated, amplified, and screened for GFP-LC3 expression by fluorescence microscopy and Western blotting.
# as §3
# [12] = tested on: P23H heterozygous mutant mice; test: ERG retinal function in P23H mouse model of retinitis pigmentosa; assay type: in vivo; conditions: rapamycin once per week from twenty-one days old; course of three months
# Experimental: Mice expressing the P23H opsin protein are described by Liu et al., Journal of Cell Science 110, 2589-2597 (1997).
# Heterozygous P23H transgenic mice were treated once per week with rapamycin beginning when the mice were twenty-one days old.
# (§4) The mice are dark adapted twenty-four hours prior to ERG. A mix of ketamine and xylazine was used to anesthestize mice. Dosage was determined by weight. Mouse eyes were numbed with proparacaine drops and dilated with Ak-dilate. The mouse was then placed on the machine (UTAS-E 2000) a ground electrode was inserted into the hind limb, another electrode was inserted into the neck, and a pair of electrode was used to record the ERG from each eye. After getting a baseline reading, the ERG was measured at 20, 10 and 0 dB. Monthly ERG's were measured and the B-wave amplitude was determined.
# [13] = cited from earlier work
# [14] = tested on: Abcr heterozygous mutant mice; test: ERG retinal function in mouse model of macular degeneration; assay type: in vivo; conditions: rapamycin 20 mg/kg once per week intraperitoneal from four months old
# Experimental: abcr+/− mice are described by Mata et al., Investigative Opthalmology and Visual Science. 2001; 42:1685-1690.
# abcr+/− mice were treated with 20 mg/kg of rapamycin once per week beginning when the mice were four months old. The rapamycin was administered by intraperitoneal injection.
# as §4
compound,measurement,setting,value
CC(C)C[C@@H](C=O)NC(=O)[C@H](CC(C)C)NC(=O)[C@H](CC(C)C)NC(=O)OCc1ccccc1 [MG132] (Cbz-Leu-Leu-Leu-aldehyde),effect of inhibitor on FTI-277 induced P23H opsin degradation,[1],did not interfere
same,effect of inhibitor on P23H opsin degradation,[1],no effect
CC1=C(/C=C/C(C)=C/C=C/C(C)=C/C=O)C(C)(C)CCC1 [11-cis retinal],levels of P23H degradation,[1]; 11-cis retinal administered at the time autophagy was induced,not altered
same,P23H protein degradation profile versus wild-type opsin and untreated P23H cells,[1]; 11-cis retinal during amino acid depletion,intermediate degradation profile
"COC(=O)[C@H](CCSC)NC(=O)c1ccc(NC[C@@H](N)CS)cc1-c1ccccc1 [FTI-277, methyl {N-[2-phenyl-4-N[2(R)-amino-3-mercaptopropylamino]benzoyl]}-methionate]",MAPK phosphorylation,[2],slight increase
same,stimulation of Akt phosphorylation,[3],unaffected
same,lysosomal numbers and size (lysotracker),[4],increase
same,phosphorylation of S6 kinase,[5],dramatically reduced
same,colocalization of Atg7 and Atg8 with P23H opsin,[6],dramatic increase
same,dephosphorylation of mTOR,[7]; FTI-277 in combination with amino acid and serum starvation,further enhanced
same,phosphorylation of mTor,"[7]; FTI-277 treatment, time course of twelve hours",effectively inhibited
same,increase in the fractional volume of AVs compared to untreated cells,[8],4 to 6 fold and 6 fold
same,prenylation of Rheb,[9],completely block
same,"levels of calnexin, calreticulin, Hsp70 and Hsp90 (UPR and HSR)",[10],did not affect
same,degradation of P23H opsin,[1]; FTI-277 at 10 μM,No effect
same,degradation of P23H opsin,[1]; FTI-277 at 50 μM,time-dependent degradation
same,loss of P23H opsin,[1],50%
same,degradation of P23H rhodopsin (Western blot),[1]; fed cells treated with 10 μM or 50 μM FTI277 (FIG. 8),induced the rapid degradation
same,GFP-LC3 localization,[11],localized to numerous structures consistent with its association with autophagic vacuoles
"Cn1cnc(N)c2ncnc1-2 [3-MA, 3-methyladenine]",effect of inhibitor on FTI-277 induced P23H opsin degradation,[1],prevented degradation of opsin; also recorded: inhibited P23H opsin degradation
same,effect of inhibitor on P23H opsin degradation,[1],inhibited P23H degradation
CO[C@H]1C[C@@H]2CC[C@@H](C)[C@@](O)(O2)C(=O)C(=O)N2CCCC[C@H]2C(=O)O[C@H]([C@H](C)C[C@@H]2CC[C@@H](O)[C@H](OC)C2)CC(=O)[C@H](C)/C=C(\C)[C@@H](O)[C@@H](OC)C(=O)[C@H](C)C[C@H](C)/C=C/C=C/C=C/1C [rapamycin],retinal function (ERG),[12],rescued retinal function; also recorded: enhances retinal function
same,absorption after oral administration,[13],absorbed rapidly and completely
same,retinal function (ERG),[14],rescues retinal function; also recorded: enhances retinal function
same,loss of P23H opsin,[1],70%
